The values below come from ChEMBL document CHEMBL2169826, “Pharmacokinetic benefits of 3,4-dimethoxy substitution of a phenyl ring and design of isosteres yielding orally available cathepsin K inhibitors” (J Med Chem, 2012).

In brackets after ≈: the same amount, converted by molar mass.

The bioavailability is the share of a dose that reaches the circulation, judged against a reference dose that is usually intravenous. Low readings indicate poor availability, high ones good availability. The fraction unbound is free concentration divided by total concentration. Lower therefore signals little free substance. One may read the solubility as how much of the substance goes into solution per volume. Higher therefore signals much dissolved substance. Broadly, the microsomal CLint is a measure of how fast metabolising enzymes remove a compound, apart from limits set by blood flow. As usually defined, the IC50 is the concentration at which inhibition is half-maximal. Broadly, the clearance is the rate of elimination divided by the concentration. Higher therefore signals a high capacity for elimination. A word on the hepatocyte CLint: it is the rate of metabolic loss divided by the concentration. Read a low hepatocyte CLint as slow turnover. Broadly, the logD is the decadic logarithm of the distribution of all forms, ionised or not, between an organic phase and buffer at a given pH.

Data set [1] can be described thus: Volume of distribution at steady state in Alderley Park Han Wistar rat at 2 mg/kg, iv and 2 mg/kg, po. It counts as ADME, organism-based. The following applies: in vivo, read-out: Vdss.
The nature of data set [2]: Oral bioavailability in Alderley Park Han Wistar rat at 2 mg/kg. Type of data set: ADME, organism-based. As to conditions: in vivo.
Data set [3] can be described thus: Percentage unbound in rat plasma. Type of data set: ADME, cell-free.
Data set [4] is described as follows: Percentage unbound in human plasma. It counts as ADME, cell-free.
Data set [5] can be described thus: Aqueous solubility of the compound in at pH 7.4. The following applies: buffer.
Data set [6] can be described thus: Metabolic stability of the compound in human liver microsomes assessed as compound turnover after 120 mins. (Liver microsomes are vesicles of endoplasmic reticulum, rich in cytochrome P450 enzymes.)
The next data set addresses Cathepsin B (Homo sapiens, UniProt P07858). Put plainly: Inhibition of human recombinant cathepsin-B using Z-Arg-Arg-AMC as substrate preincubated for 15 mins measured after 1 hr by QFRET assay.
The target in a further data set is T1, Cathepsin K (Homo sapiens, UniProt P43235).
T1 sequence (P43235 whole entry): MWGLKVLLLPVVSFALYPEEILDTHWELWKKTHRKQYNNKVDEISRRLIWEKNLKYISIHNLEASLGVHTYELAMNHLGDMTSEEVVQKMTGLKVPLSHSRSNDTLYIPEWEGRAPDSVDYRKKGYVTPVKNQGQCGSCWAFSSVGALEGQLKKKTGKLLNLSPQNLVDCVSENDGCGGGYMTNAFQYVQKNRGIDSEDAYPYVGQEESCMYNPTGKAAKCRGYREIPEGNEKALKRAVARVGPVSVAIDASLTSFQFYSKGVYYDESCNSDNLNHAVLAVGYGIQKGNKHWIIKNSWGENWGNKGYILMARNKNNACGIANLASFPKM
Put plainly: Inhibition of human recombinant cathepsin-k using Z-Phe-Arg-AMC as substrate preincubated for 15 mins measured after 1 hr by QFRET assay.

In the next data set the target is Procathepsin L (Homo sapiens, UniProt P07711). Put plainly: Inhibition of human recombinant cathepsin-L using Z-Phe-Arg-AMC as substrate preincubated for 15 mins measured after 1 hr by QFRET assay.
Procathepsin L, sequence (P07711 whole entry): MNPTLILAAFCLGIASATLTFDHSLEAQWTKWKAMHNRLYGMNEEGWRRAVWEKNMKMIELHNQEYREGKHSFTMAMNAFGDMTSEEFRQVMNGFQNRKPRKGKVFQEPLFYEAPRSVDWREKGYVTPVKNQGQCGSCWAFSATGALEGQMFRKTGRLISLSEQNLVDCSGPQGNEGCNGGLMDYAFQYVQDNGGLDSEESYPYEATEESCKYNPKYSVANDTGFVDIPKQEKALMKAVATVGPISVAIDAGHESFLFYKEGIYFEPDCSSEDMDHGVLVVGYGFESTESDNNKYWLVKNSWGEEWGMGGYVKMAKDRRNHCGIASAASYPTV
In another data set the target is Cathepsin S (Homo sapiens, UniProt P25774). Put plainly: Inhibition of human recombinant cathepsin-S using Z-Val-Val-Arg-AMC as substrate preincubated for 15 mins measured after 1 hr by QFRET assay.
Cathepsin S, sequence (P25774 whole entry): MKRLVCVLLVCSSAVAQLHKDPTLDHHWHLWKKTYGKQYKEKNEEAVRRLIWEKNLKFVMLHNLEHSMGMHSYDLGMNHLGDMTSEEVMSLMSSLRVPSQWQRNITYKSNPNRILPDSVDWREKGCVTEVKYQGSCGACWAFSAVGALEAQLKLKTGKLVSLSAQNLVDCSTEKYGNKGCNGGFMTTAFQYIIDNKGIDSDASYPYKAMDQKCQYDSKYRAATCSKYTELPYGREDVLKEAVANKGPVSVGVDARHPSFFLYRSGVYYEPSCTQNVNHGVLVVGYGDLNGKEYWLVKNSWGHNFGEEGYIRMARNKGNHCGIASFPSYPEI
The nature of data set [7]: in vivo. The following applies: Alderley Park Han Wistar, rat, plasma, iv, 2 mg/kg.
Data set [8] in a line: in vitro. As to conditions: human, hepatocytes.
The nature of data set [9]: in vitro. As to conditions: rat, hepatocytes.
A short description of the next data set: physchem. As to conditions: buffer, pH 7.4.
Another data set addresses Cytochrome P450 3A4 (Homo sapiens, UniProt P08684). Put plainly: Inhibition of CYP3A4. Type of data set: ADME.
The nature of data set [10]: Metabolic stability of the compound in rat liver microsomes assessed as compound turnover after 120 mins.
Data set [11] is described as follows: Clearance in rat. Type of data set: ADME, organism-based. As to conditions: in vivo.
A short description of data set [12]: Volume of distribution at steady state in rat. It counts as ADME, organism-based. The following applies: in vivo, read-out: Vdss.
Data set [13] is described as follows: Oral bioavailability in rat. Type of data set: ADME, organism-based. As to conditions: in vivo.
A short description of data set [14]: Inhibition of osteoclastogenesis in human bone marrow-derived stem cells assessed as reduction of pit formation by measuring TRACP5b activity after 7 days by bone TRAP assay. It counts as functional. The following applies: 168 h.
A short description of data set [15]: Volume of distribution at steady state in Beagle dog at 1 mg/kg, iv and 1 mg/kg, po. It counts as ADME, organism-based, Canis lupus familiaris. The following applies: in vivo, read-out: Vdss.
The nature of data set [16]: Oral bioavailability in Beagle dog at 1 mg/kg. It counts as ADME, organism-based, Canis lupus familiaris. The following applies: in vivo.
Data set [17] can be described thus: Percentage unbound in dog plasma. Type of data set: ADME, cell-free, Canis lupus familiaris.
The species entered for the next data set is Homo sapiens. In words: Selectivity ratio of IC50 for human recombinant cathepsin-K to IC50 for human recombinant cathepsin-B.
Data set [18] is described as follows: in vivo. As to conditions: beagle, dog, plasma, iv, 1 mg/kg.

Cytochrome P450 3A4, sequence (P08684 whole entry): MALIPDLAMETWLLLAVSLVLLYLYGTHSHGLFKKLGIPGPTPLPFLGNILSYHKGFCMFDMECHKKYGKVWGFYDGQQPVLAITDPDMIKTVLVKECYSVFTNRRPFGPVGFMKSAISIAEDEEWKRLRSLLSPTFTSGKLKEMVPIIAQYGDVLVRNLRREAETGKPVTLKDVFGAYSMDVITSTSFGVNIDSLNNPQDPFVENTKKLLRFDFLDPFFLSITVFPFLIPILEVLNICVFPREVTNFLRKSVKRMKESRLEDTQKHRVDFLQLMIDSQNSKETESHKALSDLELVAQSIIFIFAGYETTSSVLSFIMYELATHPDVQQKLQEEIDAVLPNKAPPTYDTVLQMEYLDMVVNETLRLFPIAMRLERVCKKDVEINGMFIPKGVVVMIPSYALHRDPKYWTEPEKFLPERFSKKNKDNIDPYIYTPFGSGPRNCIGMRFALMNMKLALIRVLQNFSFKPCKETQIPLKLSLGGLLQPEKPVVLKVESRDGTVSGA

Consider `Cc1noc2cc(N3CCN(C(=O)[C@@H]4CCCC[C@H]4C(=O)NC4(C#N)CC4)[C@H](C)C3)ccc12`, for which the Vd in data set [1] was 2.1 L/kg. Further, in data set [2], the bioavailability is 21%. Also, the figures for the fraction unbound in data set [3] and in data set [4] were 0.14 and 0.2, respectively. For the same compound, the concentration in solution in data set [5] (solubility) was 600 µM (≈ 270 µg/mL). In addition, in [6], the microsomal CLint at 2 h was 9.3 µL/min/mg. Besides, the IC50 at Cathepsin B is 603 nM; at Cathepsin K, 16 nM; on Procathepsin L, more than 10000 nM; at Cathepsin S, 807 nM. In “in vivo [7]”, the clearance was 29 mL/min/kg. The results for the hepatocyte CLint in the data set “in vitro [8]” and in “in vitro [9]” were 30 µL/min/1e6 cells and 9.4 µL/min/1e6 cells, respectively. The logD in “physchem” worked out at 2.7.
With `COc1cc(N2CCN(C(=O)[C@@H]3CCCC[C@H]3C(=O)NC3(C#N)CC3)[C@H](C)C2)ccc1C1CC1`, the INH on Cytochrome P450 3A4 is 1.6 µM. Further, the Vd in data set [1] was determined as 2.8 L/kg. The bioavailability in [2] was 57%. Also, the results for the fraction unbound in data set [3] and in data set [4] were 0.072 and 0.081, respectively. The microsomal CLint at 2 h in data set [10] amounted to 33 µL/min/mg; in [6], 9 µL/min/mg. The compound further showed a solubility in data set [5] of 200 µM (≈ 92.9 µg/mL). Further, the IC50 on Cathepsin B was 1140 nM; at Cathepsin K, 3 nM; on Procathepsin L, more than 10000 nM; at Cathepsin S it was 1370 nM. Besides, the clearance in the data set “in vivo [7]” is 39 mL/min/kg. In addition, the figures for the hepatocyte CLint in “in vitro [8]” and in the data set “in vitro [9]” were 25 µL/min/1e6 cells and 13 µL/min/1e6 cells, respectively. The log distribution coefficient (logD) in the data set “physchem” was found to be 3.5.
For `N#CC1(NC(=O)[C@@H]2CCCC[C@H]2C(=O)N2CCN(c3ccc(F)cc3)CC2)CC1`, the Vd in data set [1] and in data set [12] was 1.3 L/kg throughout. In addition, the bioavailability in data set [2] and in [13] was 0% in each case. For the same compound, the fraction unbound in data set [3] was more than 0.53; in data set [4], more than 0.5. The microsomal CLint at 2 h in [10] came out at 35 µL/min/mg. The clearance (in [11]; in “in vivo [7]”) was 36 mL/min/kg in each case.
`COc1ccc(N2CCN(C(=O)[C@@H]3CCCC[C@H]3C(=O)NC3(C#N)CC3)[C@H](C)C2)cc1OC`: the IC50 was 40 nM in data set [14]; 1850 nM on Cathepsin B; 4 nM on Cathepsin K; more than 10000 nM at Procathepsin L; 1450 nM at Cathepsin S. The figures for the Vd in data set [1] and in [15] were 1.2 L/kg and 0.8 L/kg, respectively. Further, the bioavailability in data set [2] is 46%; in data set [16], 71%. The fraction unbound stood at 0.53 in [3], 0.39 in [17] and 0.39 in data set [4]. The compound also returned a solubility in [5] of more than 2400 µM. Moreover, in the data set “physchem”, the logD was determined as 1.9.
For `COc1ccc(N2CCN(C(=O)[C@@H]3CCCC[C@H]3C(=O)NCC#N)CC2)cc1OC`, the microsomal CLint at 2 h in data set [10] was 6.8 µL/min/mg; in [6], 2.2 µL/min/mg. Besides, the Ratio IC50 in the data set filed under Homo sapiens came out at 211. The IC50 at Cathepsin B is 1270 nM; on Cathepsin K it was 6 nM; on Procathepsin L, more than 10000 nM; at Cathepsin S, 1090 nM.
With `COc1ccc(N2CCN(C(=O)[C@@H]3CCCC[C@H]3C(=O)NC3(C#N)CC3)CC2)cc1OC`, the IC50 is 126 nM in [14]; 3060 nM on Cathepsin B; 9 nM on Cathepsin K; more than 10000 nM at Procathepsin L; 2290 nM on Cathepsin S. Further, the bioavailability in [2] stood at 41%; in data set [16], 79%. Also, the microsomal CLint at 2 h in data set [10] is less than 7.4 µL/min/mg; in data set [6], 2.3 µL/min/mg. Also, in the data set filed under Homo sapiens, the Ratio IC50 stood at 340. The fraction unbound in data set [4] was found to be 0.45. In data set [5], this compound gave a solubility of more than 2500 µM. Further, the clearance in “in vivo [7]” is 29 mL/min/kg; in the data set “in vivo [18]”, 12 mL/min/kg. In “physchem”, this compound had a logD of 1.4.
With `CCCN1CCN(c2ccc(C(=O)NC3(C(=O)NCC#N)CCCCC3)cc2)CC1` [BALICATIB], the IC50 in data set [14] was determined as 26.6 nM.
As to `Cc1nn(C)c2cc(N3CCN(C(=O)[C@@H]4CCCC[C@H]4C(=O)NC4(C#N)CC4)[C@H](C)C3)ccc12`, the Vd in data set [1] came out at 2.5 L/kg. In [2], this compound gave a bioavailability of 87%. Further, the unbound share (fraction unbound) in [3] came to 0.3; in [4], 0.28. In addition, the microsomal CLint at 2 h in data set [10] was 15 µL/min/mg; in data set [6], 8.8 µL/min/mg. Besides, the solubility in data set [5] was more than 1100 µM. For the same compound, the IC50 is 766 nM at Cathepsin B, 8 nM at Cathepsin K, more than 10000 nM at Procathepsin L and 1250 nM at Cathepsin S. The clearance in the data set “in vivo [7]” turned out to be 19 mL/min/kg. Besides, the hepatocyte CLint in “in vitro [8]” is 4.7 µL/min/1e6 cells; in “in vitro [9]” it was 4.6 µL/min/1e6 cells. Besides, the logD in “physchem” stood at 2.7.
